Test results: patent US20210238139A1, “MODULATORS OF TRYPTOPHAN CATABOLISM” (E-Therapeutics PLC, priority 2018, published 2021)
pIC50: −log10 of the molar value.

These compounds were tested on SK-OV-3 cells (assay: Effect of compounds on tryptophan catabolism in SK-OV-3 cell line (inhibition of kynurenine production, LC-MS/MS)). Details: Homo sapiens, SK-OV-3, 24 h, SK-OV-3 cell line, 24 h incubation, kynurenine in supernatant by LC-MS/MS; read-out: IC50 Ranges (ic50 values for inhibition of Kynurenine production).
Assay type: cell-based
Protocol: SK-OV-3 cells are seeded in 96-well plates in McCoy's 5A medium supplemented with 10% FBS and incubated overnight at 37° C., 5% CO2, 95% humidity. The […] growth medium is replaced with DMEM F-12 medium supplemented with 6 mg/mL L-tryptophan. Compounds are added to the wells and incubated for 24 h at 37° C., 5% CO2, 95% humidity. Compounds are tested at 8 consecutive 3-fold dilutions starting from 30 μM in duplicate. At the end of incubation, concentration of kynurenine in cell supernatants is […] determined by LC-MS/MS. In parallel, cell viability is assessed by measurement of ATP using CellTiter Glo assay (Promega), according to manufacturer's protocol. Inhibition of Kyn production is calculated using the following formula: […] IC50 ranges for compounds of the invention are presented in Table 2, whereby the IC50 ranges are as follows: • A: […]

Row | SMILES | pIC50
1 | CC(c1cccc(C#N)c1)N(C(=O)Nc1ccc(C#N)cc1)C1CCCC1 (racemic) [Compound 188, 3-(4-cyanophenyl)-1-[1-(3-cyanophenyl)ethyl]-1-cyclopentyl-urea] | 6.30 to 7.00
2 | Cc1ccc(C(C)N(C(=O)Nc2ccc(C#N)cc2)C2CCCC2)o1 (racemic) [Compound 190, 3-(4-cyanophenyl)-1-cyclopentyl-1-[1-(5-methyl-2-furyl)ethyl]urea] | 6.30 to 7.00
3 | Cc1ccc(C(C)N(C(=O)Nc2ccc(F)cc2)C2CCCC2)o1 (racemic) [Compound 191, 1-cyclopentyl-3-(4-fluorophenyl)-1-[1-(5-methyl-2-furyl)ethyl]urea] | 6.00 to 6.30
4 | CC(c1cccc(C#N)c1)N(C(=O)Nc1ccc(Cl)cc1)C1CCC1 (racemic) [Compound 192, 3-(4-chlorophenyl)-1-[1-(3-cyanophenyl)ethyl]-1-cyclobutyl-urea] | > 7.00
5 | CCc1c(C)sc2c1CCN(C(=O)Nc1cc(C)cc(C)c1)C2c1ccccc1 (racemic) [Compound 194, N-(3,5-dimethylphenyl)-3-ethyl-2-methyl-7-phenyl-5,7-dihydro-4H-thieno[2,3-c]pyridine-6-carboxamide] | 6.30 to 7.00
6 | CC(NC(=O)Nc1ccccc1)c1ccc(F)cc1 (racemic) [Compound 197, 1-[1-(4-fluorophenyl)ethyl]-3-phenyl-urea] | 5.30 to 6.00
7 | CC(NC(=O)Nc1ccc(Cl)cc1)c1ccc(Cl)s1 (racemic) [Compound 199, 1-(4-chlorophenyl)-3-[1-(5-chloro-2-thienyl)ethyl]urea] | 6.00 to 6.30
8 | O=C(NCCc1ccccc1)N(Cc1cccs1)C1CCCC1 [Compound 1, 1-cyclopentyl-3-(2-phenylethyl)-1-(2-thienylmethyl)urea] | 5.30 to 6.00
9 | O=C(Nc1ccccc1Cl)N(Cc1cccs1)C1CCCC1 [Compound 2, 3-(2-chlorophenyl)-1-cyclopentyl-1-(2-thienylmethyl)urea] | 5.30 to 6.00
10 | Cc1ccc(NC(=O)N(Cc2cccs2)C2CCCC2)c(C)c1 [Compound 5, 1-cyclopentyl-3-(2,4-dimethylphenyl)-1-(2-thienylmethyl)urea] | 5.30 to 6.00
11 | N#CCc1ccc(NC(=O)N(Cc2cccs2)C2CCCC2)cc1 [Compound 6, 3-[4-(cyanomethyl)phenyl]-1-cyclopentyl-1-(2-thienylmethyl)urea] | 5.30 to 6.00
12 | O=C(Nc1ccc2c(c1)CCC2)N(Cc1cccs1)C1CCCC1 [Compound 9, 1-cyclopentyl-3-indan-5-yl-1-(2-thienylmethyl)urea] | 5.30 to 6.00
13 | O=C(NC1CCCCC1)N(Cc1cccs1)C1CCCC1 [Compound 12, 3-cyclohexyl-1-cyclopentyl-1-(2-thienylmethyl) urea] | 5.30 to 6.00
14 | O=C(Nc1ccc(C(F)(F)F)cc1)N(Cc1cccs1)C1CCCC1 [Compound 13, 1-cyclopentyl-1-(2-thienylmethyl)-3-[4-(trifluoromethyl)phenyl]urea] | 5.30 to 6.00
15 | COc1ccc(NC(=O)N(Cc2cccs2)C2CCCC2)cc1 [Compound 14, 1-cyclopentyl-3-(4-methoxyphenyl)-1-(2-thienylmethyl)urea] | < 5.30
16 | C=CCNC(=O)N(Cc1cccs1)C1CCCC1 [Compound 15, 3-allyl-1-cyclopentyl-1-(2-thienylmethyl)urea] | 5.30 to 6.00
17 | C#Cc1ccc(NC(=O)N(Cc2ccc(C)o2)C2CCCC2)nc1 [Compound 16, 1-cyclopentyl-3-(5-ethynyl-2-pyridyl)-1-[(5-methyl-2-furyl)methyl]urea] | 6.30 to 7.00
18 | C#Cc1cnc(NC(=O)N(Cc2ccc(C)o2)C2CCCC2)nc1 [Compound 17, 1-cyclopentyl-3-(5-ethynylpyrimidin-2-yl)-1-[(5-methyl-2-furyl)methyl]urea] | 6.30 to 7.00
19 | COc1ccc(NC(=O)N(Cc2cccs2)C2CCCC2)c(OC)c1 [Compound 18, 1-cyclopentyl-3-(2,4-dimethoxyphenyl)-1-(2-thienylmethyl)urea] | 5.30 to 6.00
20 | O=C(NCCc1ccccc1)N(Cc1ccccn1)C1CCCCC1 [Compound 20, 1-cyclohexyl-3-(2-phenylethyl)-1-(2-pyridylmethyl)urea] | < 5.30
21 | O=C(Nc1ccccc1)N(Cc1ccco1)C1CCCC1 [Compound 28, 1-cyclopentyl-1-(2-furylmethyl)-3-phenyl-urea] | 6.00 to 6.30
22 | O=C(Nc1ccc(F)c(F)c1)N(Cc1ccco1)C1CCCC1 [Compound 30, 1-cyclopentyl-3-(3,4-difluorophenyl)-1-(2-furylmethyl)urea] | 6.30 to 7.00
23 | Cc1ccc(CN(C(=O)Nc2ccc(F)c(F)c2)C2CCCC2)o1 [Compound 31, 1-cyclopentyl-3-(3,4-difluorophenyl)-1-[(5-methyl-2-furyl)methyl]urea] | 6.30 to 7.00
24 | O=C(Nc1ccccc1)N(Cc1ccccn1)C1CCCCC1 [Compound 32, 1-cyclohexyl-3-phenyl-1-(2-pyridylmethyl)urea] | < 5.30
25 | O=C(Nc1ccc(F)c(F)c1)N(Cc1ccccn1)C1CCCCC1 [Compound 33, 1-cyclohexyl-3-(3,4-difluorophenyl)-1-(2-pyridylmethyl)urea] | < 5.30
26 | O=C(Nc1ccc(F)cc1)N(Cc1cccs1)C1CCCC1 [Compound 34, 1-cyclopentyl-3-(4-fluorophenyl)-1-(2-thienylmethyl)urea] | 6.30 to 7.00
27 | O=C(Nc1ccccc1)N(Cc1nccs1)C1CCCC1 [Compound 35, 1-cyclopentyl-3-phenyl-1-(thiazol-2-ylmethyl)urea] | 5.30 to 6.00
28 | CCc1ccc(NC(=O)N(Cc2nccs2)C2CCCC2)cc1 [Compound 36, 1-cyclopentyl-3-(4-ethylphenyl)-1-(thiazol-2-ylmethyl)urea] | 5.30 to 6.00

Now from value to compound:

Row | pIC50 | SMILES
29 | > 7.00 | CC(c1cccc(C#N)c1)N(C(=O)Nc1ccc(Cl)cc1)C1CCCC1 (racemic) [Compound 173, 3-(4-chlorophenyl)-1-[1-(3-cyanophenyl)ethyl]-1-cyclopentyl-urea]
30 | 6.30 to 7.00 | CC(c1ccccn1)N(C(=O)Nc1ccc(Cl)cc1)C1CCCC1 (racemic) [Compound 174, 3-(4-chlorophenyl)-1-cyclopentyl-1-[1-(2-pyridyl)ethyl]urea]
31 | 6.30 to 7.00 | CC(c1cccc(C#N)c1)N(C(=O)Nc1ccc(C#N)cc1)C1CCC1 (racemic) [Compound 184, 3-(4-cyanophenyl)-1-[1-(3-cyanophenyl)ethyl]-1-cyclobutyl-urea]
32 | 6.30 to 7.00 | CC(c1cccc(C#N)c1)N(C(=O)Nc1ccccc1)C1CCCC1 (racemic) [Compound 186, 1-[1-(3-cyanophenyl)ethyl]-1-cyclopentyl-3-phenyl-urea]
33 | 6.30 to 7.00 | CC(c1cccc(C#N)c1)N(C(=O)Nc1ccc(F)cc1)C1CCCC1 (racemic) [Compound 187, 1-[1-(3-cyanophenyl)ethyl]-1-cyclopentyl-3-(4-fluorophenyl)urea]
34 | 6.30 to 7.00 | CC(c1cccc(C#N)c1)N(C(=O)Nc1ccc(F)cc1)C1CCC1 (racemic) [Compound 189, 1-[1-(3-cyanophenyl)ethyl]-1-cyclobutyl-3-(4-fluorophenyl)urea]
35 | 6.00 to 6.30 | O=C(Nc1ccc(F)c(F)c1)N(Cc1cccs1)C1CCCC1 [Compound 4, 1-cyclopentyl-3-(3,4-difluorophenyl)-1-(2-thienylmethyl)urea]
36 | 5.30 to 6.00 | O=C(Nc1ccc2c(c1)OCO2)N(Cc1cccs1)C1CCCC1 [Compound 7, 3-(1,3-benzodioxol-5-yl)-1-cyclopentyl-1-(2-thienylmethyl)urea]
37 | < 5.30 | O=C(NCc1ccc(F)cc1)N(Cc1cccs1)C1CCCC1 [Compound 8, 1-cyclopentyl-3-[(4-fluorophenyl)methyl]-1-(2-thienylmethyl)urea]
38 | 5.30 to 6.00 | O=C(Nc1cc(Cl)nc(Cl)c1)N(Cc1cccs1)C1CCCC1 [Compound 10, 1-cyclopentyl-3-(2,6-dichloro-4-pyridyl)-1-(2-thienylmethyl)urea]
39 | 5.30 to 6.00 | O=C(Nc1ccncc1)N(Cc1cccs1)C1CCCC1 [Compound 11, 1-cyclopentyl-3-(4-pyridyl)-1-(2-thienylmethyl)urea]
40 | < 5.30 | CC(=O)c1ccc(NC(=O)N(Cc2cccs2)C2CCCC2)cc1 [Compound 22, 3-(4-acetylphenyl)-1-cyclopentyl-1-(2-thienylmethyl)urea]
41 | < 5.30 | CN(C(=O)N(Cc1cccs1)C1CCCC1)c1ccccc1 [Compound 23, 1-cyclopentyl-3-methyl-3-phenyl-1-(2-thienylmethyl)urea]
42 | < 5.30 | Cc1ccc(CN(C(=O)Nc2ccccc2)C2CCCC2)s1 [Compound 24, 1-cyclopentyl-1-[(5-methyl-2-thienyl)methyl]-3-phenyl-urea]
43 | 6.30 to 7.00 | CCc1ccc(NC(=O)N(Cc2ccc(C)s2)C2CCCC2)cc1 [Compound 25, 1-cyclopentyl-3-(4-ethylphenyl)-1-[(5-methyl-2-thienyl)methyl]urea]
44 | 6.30 to 7.00 | Cc1ccc(CN(C(=O)Nc2ccc(F)c(F)c2)C2CCCC2)s1 [Compound 27, 1-cyclopentyl-3-(3,4-difluorophenyl)-1-[(5-methyl-2-thienyl)methyl]urea]
45 | < 5.30 | O=C(NCCc1ccccc1)N(Cc1ccco1)C1CCCC1 [Compound 29, 1-cyclopentyl-1-(2-furylmethyl)-3-(2-phenylethyl)urea]
46 | 5.30 to 6.00 | O=C(Nc1ccc(F)c(F)c1)N(Cc1nccs1)C1CCCC1 [Compound 37, 1-cyclopentyl-3-(3,4-difluorophenyl)-1-(thiazol-2-ylmethyl)urea]

Same assay, conditions: SK-OV-3 cell line, 24 h incubation, kynurenine in supernatant by LC-MS/MS; read-out: IC50 Ranges (ic50 values for inhibition of Kynurenine production)

Row | SMILES | pIC50
47 | O=C(Nc1ccccc1)N(Cc1cccs1)C1CCCC1 [Compound 19, 1-cyclopentyl-3-phenyl-1-(2-thienylmethyl)urea] | 6.00 to 6.30
